{"source": "patent US10448639B2", "about": "“Fungicidal pyrazoles” (FMC CORPORATION, priority 2009, dated 2019)", "key": {"[1]": {"tested_on": "Puccinia recondita f. sp. tritici", "experiment": "Test I: wheat leaf rust, preventive spray on wheat seedlings, visual disease rating", "conditions": "wheat leaf rust, preventive spray; for Test I rating (% disease control): 100 = 100% disease control, 0 = no control; for Test I rating (% disease control), value marked *: rating marked with asterisk (different test condition, key not given)"}, "Septoria nodorum": {"tested_on": "Septoria nodorum", "experiment": "Test F: Septoria glume blotch, preventive spray on wheat seedlings, visual disease rating", "conditions": "preventive spray; for Test F rating (% disease control): Septoria glume blotch on wheat, 100 = 100% disease control, 0 = no control; for Test F rating (% disease control), value marked *: Septoria glume blotch, rating marked with asterisk (different test condition, key not given)"}, "Botrytis cinerea": {"tested_on": "Botrytis cinerea", "experiment": "Test B: tomato Botrytis, preventive spray on tomato seedlings, visual disease rating", "conditions": "tomato Botrytis, preventive spray; for Test B rating (% disease control): 100 = 100% disease control, 0 = no control; for Test B rating (% disease control), value marked *: rating marked with asterisk (different test condition, key not given)"}, "[2]": {"tested_on": "Puccinia recondita f. sp. tritici", "experiment": "Test H: wheat leaf rust, curative spray on inoculated wheat seedlings, visual disease rating", "conditions": "wheat leaf rust, curative spray; for Test H rating (% disease control): 100 = 100% disease control, 0 = no control; for Test H rating (% disease control), value marked *: rating marked with asterisk (different test condition, key not given)"}, "Alternaria solani": {"tested_on": "Alternaria solani", "experiment": "Test C: tomato early blight, preventive spray on tomato seedlings, visual disease rating", "conditions": "tomato early blight, preventive spray; for Test C rating (% disease control): 100 = 100% disease control, 0 = no control; for Test C rating (% disease control), value marked *: rating marked with asterisk (different test condition, key not given)"}, "Septoria tritici": {"tested_on": "Septoria tritici", "experiment": "Test G: wheat leaf blotch, preventive spray on wheat seedlings, visual disease rating", "conditions": "wheat leaf blotch, preventive spray; for Test G rating (% disease control): 100 = 100% disease control, 0 = no control; for Test G rating (% disease control), value marked *: rating marked with asterisk (different test condition, key not given)"}, "[3]": {"tested_on": "Erysiphe graminis f sp. tritici", "experiment": "Test J: wheat powdery mildew, preventive spray on wheat seedlings, visual disease rating", "conditions": "wheat powdery mildew, preventive spray; for Test J rating (% disease control): 100 = 100% disease control, 0 = no control; for Test J rating (% disease control), value marked *: rating marked with asterisk (different test condition, key not given)"}}, "note": "Marks after values point to notes of the source that are not given here.", "data": [{"smiles": "Cc1nn(C)c(Oc2ccc([N+](=O)[O-])cc2F)c1-c1ccc(F)cc1Cl", "note": "[compound 20]", "values": [{"measurement": "Test I rating (% disease control)", "setting": "[1]", "result": 100, "unit": "%"}, {"measurement": "Test F rating (% disease control)", "setting": "Septoria nodorum", "result": 100, "unit": "%"}, {"measurement": "Test B rating (% disease control)", "setting": "Botrytis cinerea", "result": 100, "unit": "%"}, {"measurement": "Test H rating (% disease control)", "setting": "[2]", "result": 79, "unit": "%"}, {"measurement": "Test C rating (% disease control)", "setting": "Alternaria solani", "result": 99, "unit": "%"}, {"measurement": "Test G rating (% disease control)", "setting": "Septoria tritici", "result": 100, "unit": "%"}, {"measurement": "Test J rating (% disease control)", "setting": "[3]", "result": 99, "unit": "%"}]}, {"smiles": "COc1cc(F)c(Nc2c(-c3cccc(Cl)c3)c(C)nn2C)c(F)c1", "note": "[compound 25]", "values": [{"measurement": "Test I rating (% disease control)", "setting": "[1]", "result": 94, "unit": "%"}, {"measurement": "Test F rating (% disease control)", "setting": "Septoria nodorum", "result": 0, "unit": "%"}, {"measurement": "Test B rating (% disease control)", "setting": "Botrytis cinerea", "result": 100, "unit": "%"}, {"measurement": "Test H rating (% disease control)", "setting": "[2]", "result": 0, "unit": "%"}, {"measurement": "Test C rating (% disease control)", "setting": "Alternaria solani", "result": 0, "unit": "%"}, {"measurement": "Test G rating (% disease control)", "setting": "Septoria tritici", "result": 100, "unit": "%"}, {"measurement": "Test J rating (% disease control)", "setting": "[3]", "result": 79, "unit": "%"}]}, {"smiles": "Cc1nn(C)c(Oc2ccc([N+](=O)[O-])cc2)c1-c1c(F)cc(F)cc1F", "note": "[compound 26]", "values": [{"measurement": "Test I rating (% disease control)", "setting": "[1]", "result": 99, "unit": "%"}, {"measurement": "Test F rating (% disease control)", "setting": "Septoria nodorum", "result": 0, "unit": "%"}, {"measurement": "Test B rating (% disease control)", "setting": "Botrytis cinerea", "result": 99, "unit": "%"}, {"measurement": "Test H rating (% disease control)", "setting": "[2]", "result": 0, "unit": "%"}, {"measurement": "Test C rating (% disease control)", "setting": "Alternaria solani", "result": 83, "unit": "%"}, {"measurement": "Test G rating (% disease control)", "setting": "Septoria tritici", "result": 100, "unit": "%"}, {"measurement": "Test J rating (% disease control)", "setting": "[3]", "result": 100, "unit": "%"}]}, {"smiles": "Cc1nn(C)c(Oc2ccc(Cl)cc2)c1-c1c(F)cc(F)cc1F", "note": "[compound 27]", "values": [{"measurement": "Test I rating (% disease control)", "setting": "[1]", "result": 25, "unit": "%"}, {"measurement": "Test F rating (% disease control)", "setting": "Septoria nodorum", "result": 0, "unit": "%"}, {"measurement": "Test B rating (% disease control)", "setting": "Botrytis cinerea", "result": 99, "unit": "%"}, {"measurement": "Test H rating (% disease control)", "setting": "[2]", "result": 0, "unit": "%"}, {"measurement": "Test C rating (% disease control)", "setting": "Alternaria solani", "result": 88, "unit": "%"}, {"measurement": "Test G rating (% disease control)", "setting": "Septoria tritici", "result": 95, "unit": "%"}, {"measurement": "Test J rating (% disease control)", "setting": "[3]", "result": 87, "unit": "%"}]}, {"smiles": "Cc1nn(C)c(Nc2c(F)cc(F)cc2F)c1-c1ccc(Cl)cc1", "note": "[compound 28]", "values": [{"measurement": "Test I rating (% disease control)", "setting": "[1]", "result": 91, "unit": "%"}, {"measurement": "Test F rating (% disease control)", "setting": "Septoria nodorum", "result": 0, "unit": "%"}, {"measurement": "Test B rating (% disease control)", "setting": "Botrytis cinerea", "result": 99, "unit": "%"}, {"measurement": "Test H rating (% disease control)", "setting": "[2]", "result": 7, "unit": "%"}, {"measurement": "Test C rating (% disease control)", "setting": "Alternaria solani", "result": 0, "unit": "%"}, {"measurement": "Test G rating (% disease control)", "setting": "Septoria tritici", "result": 96, "unit": "%"}, {"measurement": "Test J rating (% disease control)", "setting": "[3]", "result": 0, "unit": "%"}]}, {"smiles": "COc1cc(F)c(Nc2c(-c3ccc(Cl)cc3)c(C)nn2C)c(F)c1", "note": "[compound 29]", "values": [{"measurement": "Test I rating (% disease control)", "setting": "[1]", "result": 46, "unit": "%"}, {"measurement": "Test F rating (% disease control)", "setting": "Septoria nodorum", "result": 0, "unit": "%"}, {"measurement": "Test B rating (% disease control)", "setting": "Botrytis cinerea", "result": 94, "unit": "%"}, {"measurement": "Test H rating (% disease control)", "setting": "[2]", "result": 0, "unit": "%"}, {"measurement": "Test C rating (% disease control)", "setting": "Alternaria solani", "result": 0, "unit": "%"}, {"measurement": "Test G rating (% disease control)", "setting": "Septoria tritici", "result": 98, "unit": "%"}, {"measurement": "Test J rating (% disease control)", "setting": "[3]", "result": 0, "unit": "%"}]}, {"smiles": "Cc1nn(C)c(Oc2c(Cl)cc(C(F)(F)F)cc2Cl)c1-c1c(F)cc(F)cc1F", "note": "[compound 30]", "values": [{"measurement": "Test I rating (% disease control)", "setting": "[1]", "result": 79, "unit": "%"}, {"measurement": "Test F rating (% disease control)", "setting": "Septoria nodorum", "result": 0, "unit": "%"}, {"measurement": "Test B rating (% disease control)", "setting": "Botrytis cinerea", "result": 7, "unit": "%"}, {"measurement": "Test H rating (% disease control)", "setting": "[2]", "result": 0, "unit": "%"}, {"measurement": "Test C rating (% disease control)", "setting": "Alternaria solani", "result": 0, "unit": "%"}, {"measurement": "Test G rating (% disease control)", "setting": "Septoria tritici", "result": 41, "unit": "%"}, {"measurement": "Test J rating (% disease control)", "setting": "[3]", "result": 0, "unit": "%"}]}, {"smiles": "Cc1nn(C)c(Oc2c(F)cc(C#N)cc2F)c1-c1c(F)cc(F)cc1F", "note": "[compound 31]", "values": [{"measurement": "Test I rating (% disease control), value marked *", "setting": "[1]", "result": "79* %"}, {"measurement": "Test F rating (% disease control), value marked *", "setting": "Septoria nodorum", "result": "0* %"}, {"measurement": "Test B rating (% disease control), value marked *", "setting": "Botrytis cinerea", "result": "99* %"}, {"measurement": "Test H rating (% disease control), value marked *", "setting": "[2]", "result": "15* %"}, {"measurement": "Test C rating (% disease control), value marked *", "setting": "Alternaria solani", "result": "98* %"}, {"measurement": "Test G rating (% disease control), value marked *", "setting": "Septoria tritici", "result": "47* %"}, {"measurement": "Test J rating (% disease control), value marked *", "setting": "[3]", "result": "60* %"}]}, {"smiles": "Cc1nn(C)c(Oc2ccc([N+](=O)[O-])cc2Cl)c1-c1c(F)cc(F)cc1F", "note": "[compound 32]", "values": [{"measurement": "Test I rating (% disease control)", "setting": "[1]", "result": 99, "unit": "%"}, {"measurement": "Test F rating (% disease control)", "setting": "Septoria nodorum", "result": 0, "unit": "%"}, {"measurement": "Test B rating (% disease control)", "setting": "Botrytis cinerea", "result": 99, "unit": "%"}, {"measurement": "Test H rating (% disease control)", "setting": "[2]", "result": 0, "unit": "%"}, {"measurement": "Test C rating (% disease control)", "setting": "Alternaria solani", "result": 0, "unit": "%"}, {"measurement": "Test G rating (% disease control)", "setting": "Septoria tritici", "result": 96, "unit": "%"}, {"measurement": "Test J rating (% disease control)", "setting": "[3]", "result": 97, "unit": "%"}]}, {"smiles": "Cc1nn(C)c(Nc2c(F)cccc2F)c1-c1ccc(Cl)cc1", "note": "[compound 33]", "values": [{"measurement": "Test I rating (% disease control)", "setting": "[1]", "result": 18, "unit": "%"}, {"measurement": "Test F rating (% disease control)", "setting": "Septoria nodorum", "result": 0, "unit": "%"}, {"measurement": "Test B rating (% disease control)", "setting": "Botrytis cinerea", "result": 0, "unit": "%"}, {"measurement": "Test H rating (% disease control)", "setting": "[2]", "result": 0, "unit": "%"}, {"measurement": "Test C rating (% disease control)", "setting": "Alternaria solani", "result": 0, "unit": "%"}, {"measurement": "Test G rating (% disease control)", "setting": "Septoria tritici", "result": 95, "unit": "%"}, {"measurement": "Test J rating (% disease control)", "setting": "[3]", "result": 0, "unit": "%"}]}, {"smiles": "COc1cc(F)c(-c2c(C)nn(C)c2Nc2ccc(Cl)nc2)c(F)c1", "note": "[compound 34]", "values": [{"measurement": "Test I rating (% disease control), value marked *", "setting": "[1]", "result": "76* %"}, {"measurement": "Test F rating (% disease control), value marked *", "setting": "Septoria nodorum", "result": "0* %"}, {"measurement": "Test B rating (% disease control), value marked *", "setting": "Botrytis cinerea", "result": "100* %"}, {"measurement": "Test H rating (% disease control), value marked *", "setting": "[2]", "result": "0* %"}, {"measurement": "Test C rating (% disease control), value marked *", "setting": "Alternaria solani", "result": "97* %"}, {"measurement": "Test G rating (% disease control), value marked *", "setting": "Septoria tritici", "result": "96* %"}, {"measurement": "Test J rating (% disease control), value marked *", "setting": "[3]", "result": "0* %"}]}]}
